Source: patent US11420958B2, “Aryl and heteroaryl substituted indole compounds” (BRISTOL-MYERS SQUIBB COMPANY, priority 2017, dated 2022)

What was measured:
Assay type in all cases: cell-based
[1] = target: human TLR7 (Homo sapiens (Human), UniProt Q9NYK1); experiment: TLR7 inhibition reporter assay (HEK-Blue, SEAP); settings: HEK-Blue cells overexpressing human TLR7, gardiquimod 7.5 μM stimulation
Description: (§1) TLR7/8/9 Inhibition Reporter Assays
(§2) HEK-Blue™-cells (Invivogen) overexpressing human TLR7, TLR8 or TLR9 receptors were used for screening inhibitors of these receptors using an inducible SEAP (secreted embryonic alkaline phosphatase) reporter gene under the control of the IFN-β minimal promoter fused to five NF-κc Band AP-1-binding sites. Briefly, cells are seeded into Greiner 384 well plates (15000 cells per well for TLR7, 20,000 for TLR8 and 25,000 for TLR9) and then treated with test compounds in DMSO to yield a final dose response concentration range of 0.05 nM-50 μM. After a 30 minute compound pre-treatment at room temperature, the cells are then stimulated with a TLR7 ligand (gardiquimod at a final concentration of 7.5 μM), TLR8 ligand (R848 at a final concentration of 15.9 μM) or TLR9 ligand (ODN2006 at final concentration of 5 nM) to activate NF-κB and AP-1 which induce the production of SEAP. After a 22 hour incubation at 37° C., 5% CO2, SEAP levels are determined with the addition of HEK-Bue™ Detection reagent (Invivogen), a cell culture medium that allows for detection of SEAP, according to manufacturer's specifications. The percent inhibition is determined as the % reduction in the HEK-Blue signal present in wells treated with agonist plus DMSO alone compared to wells treated with a known inhibitor.

[2] = target: human TLR8 (Homo sapiens (Human), UniProt Q9NR97); experiment: TLR8 inhibition reporter assay (HEK-Blue, SEAP); settings: HEK-Blue cells overexpressing human TLR8, R848 15.9 μM stimulation
Chain of human TLR8 (Q9NR97 27-1041): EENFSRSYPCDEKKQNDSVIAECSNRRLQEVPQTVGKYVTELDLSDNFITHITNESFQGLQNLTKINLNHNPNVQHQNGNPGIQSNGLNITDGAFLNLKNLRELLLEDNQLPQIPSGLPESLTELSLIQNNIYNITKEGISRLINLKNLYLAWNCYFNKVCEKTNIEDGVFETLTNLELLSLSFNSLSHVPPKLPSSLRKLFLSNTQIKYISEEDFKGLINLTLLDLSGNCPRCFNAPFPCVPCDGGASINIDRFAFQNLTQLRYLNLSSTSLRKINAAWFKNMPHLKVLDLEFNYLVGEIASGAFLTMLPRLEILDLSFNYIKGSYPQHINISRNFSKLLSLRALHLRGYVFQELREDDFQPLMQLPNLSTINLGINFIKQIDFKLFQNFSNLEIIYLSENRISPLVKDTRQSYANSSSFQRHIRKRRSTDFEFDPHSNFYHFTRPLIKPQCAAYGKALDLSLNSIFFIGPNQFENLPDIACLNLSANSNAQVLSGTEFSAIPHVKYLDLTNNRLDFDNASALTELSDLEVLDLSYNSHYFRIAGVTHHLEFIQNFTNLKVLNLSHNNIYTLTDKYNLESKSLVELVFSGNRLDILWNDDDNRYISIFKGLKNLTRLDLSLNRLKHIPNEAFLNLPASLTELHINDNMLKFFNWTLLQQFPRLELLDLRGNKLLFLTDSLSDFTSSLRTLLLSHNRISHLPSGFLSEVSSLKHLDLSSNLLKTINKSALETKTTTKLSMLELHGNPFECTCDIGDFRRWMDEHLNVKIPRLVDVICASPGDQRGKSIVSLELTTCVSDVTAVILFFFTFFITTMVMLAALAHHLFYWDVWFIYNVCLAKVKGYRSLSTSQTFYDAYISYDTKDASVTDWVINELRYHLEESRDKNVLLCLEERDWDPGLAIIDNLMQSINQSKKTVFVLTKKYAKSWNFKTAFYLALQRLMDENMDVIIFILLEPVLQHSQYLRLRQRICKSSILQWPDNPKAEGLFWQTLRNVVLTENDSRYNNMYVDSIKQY
Description: as §1, §2

[3] = target: human TLR9 (Homo sapiens (Human), UniProt Q9NR96); experiment: TLR9 inhibition reporter assay (HEK-Blue, SEAP); settings: HEK-Blue cells overexpressing human TLR9, ODN2006 5 nM stimulation
Chain of human TLR9 (Q9NR96 26-1032): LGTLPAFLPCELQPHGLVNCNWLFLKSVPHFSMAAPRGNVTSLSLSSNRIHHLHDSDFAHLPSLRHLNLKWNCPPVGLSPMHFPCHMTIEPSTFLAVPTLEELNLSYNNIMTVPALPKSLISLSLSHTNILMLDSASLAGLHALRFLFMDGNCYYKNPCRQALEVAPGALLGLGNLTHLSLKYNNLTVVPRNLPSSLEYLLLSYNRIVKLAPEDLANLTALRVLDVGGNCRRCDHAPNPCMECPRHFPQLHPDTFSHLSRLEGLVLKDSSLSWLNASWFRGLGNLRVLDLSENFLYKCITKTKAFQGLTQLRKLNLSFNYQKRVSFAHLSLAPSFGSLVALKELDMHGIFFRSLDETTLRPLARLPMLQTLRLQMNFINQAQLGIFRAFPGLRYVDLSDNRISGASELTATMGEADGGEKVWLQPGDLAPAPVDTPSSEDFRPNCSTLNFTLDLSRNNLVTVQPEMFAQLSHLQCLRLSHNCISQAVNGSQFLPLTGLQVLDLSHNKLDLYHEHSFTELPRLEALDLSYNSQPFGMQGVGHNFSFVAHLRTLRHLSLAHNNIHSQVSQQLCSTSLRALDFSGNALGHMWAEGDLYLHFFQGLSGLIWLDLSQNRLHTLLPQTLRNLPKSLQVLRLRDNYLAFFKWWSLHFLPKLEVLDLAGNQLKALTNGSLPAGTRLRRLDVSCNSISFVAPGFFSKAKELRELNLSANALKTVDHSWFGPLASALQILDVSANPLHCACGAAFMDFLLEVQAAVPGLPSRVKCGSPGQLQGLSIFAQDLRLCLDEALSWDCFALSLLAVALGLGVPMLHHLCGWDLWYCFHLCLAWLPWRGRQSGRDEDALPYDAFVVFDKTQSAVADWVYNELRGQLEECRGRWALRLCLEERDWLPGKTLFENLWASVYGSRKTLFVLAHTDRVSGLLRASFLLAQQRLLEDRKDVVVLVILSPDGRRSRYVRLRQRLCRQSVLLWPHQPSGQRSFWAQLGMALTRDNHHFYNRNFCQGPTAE
Description: as §1, §2

Chain of human TLR7 (Q9NYK1 27-1049): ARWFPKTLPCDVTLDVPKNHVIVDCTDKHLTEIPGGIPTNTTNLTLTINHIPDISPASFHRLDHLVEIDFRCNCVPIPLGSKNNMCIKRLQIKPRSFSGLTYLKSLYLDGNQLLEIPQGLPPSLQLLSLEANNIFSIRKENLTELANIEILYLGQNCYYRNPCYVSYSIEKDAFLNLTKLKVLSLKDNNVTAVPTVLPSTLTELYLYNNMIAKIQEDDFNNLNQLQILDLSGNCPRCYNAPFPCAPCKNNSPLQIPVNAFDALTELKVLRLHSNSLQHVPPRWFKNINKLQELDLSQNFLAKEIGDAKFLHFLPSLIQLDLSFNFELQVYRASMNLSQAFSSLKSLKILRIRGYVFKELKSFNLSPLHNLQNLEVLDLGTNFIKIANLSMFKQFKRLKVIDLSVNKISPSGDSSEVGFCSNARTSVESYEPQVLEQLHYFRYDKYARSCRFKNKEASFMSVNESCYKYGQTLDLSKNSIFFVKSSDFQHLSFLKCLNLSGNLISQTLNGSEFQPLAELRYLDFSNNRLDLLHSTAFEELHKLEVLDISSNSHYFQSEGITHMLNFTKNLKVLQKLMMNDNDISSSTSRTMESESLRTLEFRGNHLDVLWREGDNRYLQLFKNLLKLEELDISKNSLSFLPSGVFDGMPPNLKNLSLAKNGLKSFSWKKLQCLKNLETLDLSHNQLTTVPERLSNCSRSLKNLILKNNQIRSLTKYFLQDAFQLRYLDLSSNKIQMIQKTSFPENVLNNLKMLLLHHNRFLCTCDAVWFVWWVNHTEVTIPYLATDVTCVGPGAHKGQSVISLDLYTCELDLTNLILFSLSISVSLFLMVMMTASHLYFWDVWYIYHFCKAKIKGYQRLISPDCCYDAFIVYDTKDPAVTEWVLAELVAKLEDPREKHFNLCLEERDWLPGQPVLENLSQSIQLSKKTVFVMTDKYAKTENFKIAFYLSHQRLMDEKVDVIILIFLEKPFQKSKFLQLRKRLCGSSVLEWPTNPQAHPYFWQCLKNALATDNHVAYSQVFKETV

Row | Compound | IC50 [1] [nM] | IC50 [2] [nM] | IC50 [3] [nM]
1 | CCc1c(-c2ccc(OC)c(OC)c2)[nH]c2ccc(-c3cccc(CN4CCN(C)CC4)c3)cc12 [Example 368, 2-(3,4-dimethoxyphenyl)-3-ethyl-5-(3-((4-methylpiperazin-1-yl)methyl)phenyl)-1H-indole] | 2530 | 230 | –
2 | CC(C)c1c(-c2ccc3nccn3c2)[nH]c2ccc(-c3nnc([C@@H]4CCCNC4)o3)cc12 [Example 244, (R)-2-(2-(imidazo[1,2-a]pyridin-6-yl)-3-isopropyl-1H-indol-5-yl)-5-(piperidin-3-yl)-1,3,4-oxadiazole] | 153 | 422 | –
3 | COc1ccc(-c2[nH]c3ccc(-c4ccnc(N5CCN(CCC(C)O)CC5)c4)cc3c2C(C)C)cc1OC (centres unmarked) [Example 425, 4-(4-(4-(2-(3,4-dimethoxyphenyl)-3-isopropyl-1H-indol-5-yl)pyridin-2-yl)piperazin-1-yl)butan-2-ol] | 1490 | – | 7070
4 | COc1ccc(-c2[nH]c3ccc(-c4cnc(N5CCN(Cc6ccsc6)CC5)nc4)cc3c2C(C)C)cc1OC [Example 429, 2-(3,4-dimethoxyphenyl)-3-isopropyl-5-(2-(4-(thiophen-3-ylmethyl)piperazin-1-yl)pyrimidin-5-yl)-1H-indole] | 1280 | – | > 50000
5 | COc1ccc(-c2[nH]c3ccc(-c4cnc(N5CCN(Cc6cccn6C)CC5)nc4)cc3c2C(C)C)cc1OC [Example 430, 2-(3,4-dimethoxyphenyl)-3-isopropyl-5-(2-(4-((1-methyl-1H-pyrrol-2-yl)methyl)piperazin-1-yl)pyrimidin-5-yl)-1H-indole] | 1340 | – | 11900
6 | COc1ccc(-c2[nH]c3ccc(-c4cnc(Cl)n4C)cc3c2C(C)C)cc1OC [Example 437, 5-(2-chloro-1-methyl-1H-imidazol-5-yl)-2-(3,4-dimethoxyphenyl)-3-isopropyl-1H-indole] | 896 | – | 42100
7 | Cc1cc(-c2[nH]c3ccc(-c4nc5c(s4)CCNC5)cc3c2C(C)C)cc(C)n1 [Example 310, 2-(2-(2,6-dimethylpyridin-4-yl)-3-isopropyl-1H-indol-5-yl)-4,5,6,7-tetrahydrothiazolo[4,5-c]pyridine] | 3.4 | – | 647
8 | Cc1cc(-c2[nH]c3ccc(-c4nc(C(=O)NC5CCN(C(C)C)CC5)co4)cc3c2C(C)C)cc(C)n1 [Example 249, 2-(2-(2,6-dimethylpyridin-4-yl)-3-isopropyl-1H-indol-5-yl)-N-(1-isopropylpiperidin-4-yl)oxazole-4-carboxamide] | 27 | 7.5 | –
9 | COc1ccc(-c2ccc3[nH]c(-c4ccnc5[nH]ncc45)c(C(C)C)c3c2)cn1 [Example 422, 4-(3-isopropyl-5-(6-methoxypyridin-3-yl)-1H-indol-2-yl)-1H-pyrazolo[3,4-b]pyridine] | 4100 | 662 | –
10 | COc1ccc(-c2[nH]c3ccc(-c4cnc(N5CCN(CC(C)C)CC5)n4C)cc3c2C(C)C)cc1OC [Example 433, 2-(3,4-dimethoxyphenyl)-5-(2-(4-isobutylpiperazin-1-yl)-1-methyl-1H-imidazol-5-yl)-3-isopropyl-1H-indole] | 145 | – | 2110
11 | COc1ccc(-c2[nH]c3ccc(-c4ccnc(N5CCN(CCC(F)(F)F)CC5)c4)cc3c2C(C)C)cc1OC [Example 424, 2-(3,4-dimethoxyphenyl)-3-isopropyl-5-(2-(4-(3,3,3-trifluoropropyl)piperazin-1-yl)pyridin-4-yl)-1H-indole] | 2590 | – | > 50000
12 | COc1ccc(-c2[nH]c3ccc(-c4ccnc(N5CCN(Cc6ccsc6)CC5)c4)cc3c2C(C)C)cc1OC [Example 423, 2-(3,4-dimethoxyphenyl)-3-isopropyl-5-(2-(4-(thiophen-3-ylmethyl)piperazin-1-yl)pyridin-4-yl)-1H-indole] | 1400 | – | 8760
13 | CC(C)c1c(-c2ccnc3[nH]ncc23)[nH]c2ccc(-c3ccc(C(C)N4CCOCC4)cc3)cc12 (centres unmarked) [Example 372, 4-(1-(4-(3-isopropyl-2-(1H-pyrazolo[3,4-b]pyridin-4-yl)-1H-indol-5-yl)phenyl)ethyl)morpholine] | 250 | 13 | –
